Experiments:
skin = assay: UVA sun protection factor (PF = protected MPD/non-protected MPD) on the back of volunteers; type: in vivo, human (healthy adults of both sexes); conditions: for UVA skin protection (assessment in words): based on the UVA sun protection factors 1.6, 2.7 and 3.4; for UVA sun protection factor: 2±0.02 μl/cm^2, UVA 320-400 nm, read approximately 2 h after exposure
Protocol: Potentiation of the sun protection factor
The aim of the test is to show the ability of the compositions of the invention to protect the skin against UVA by virtue of a high UVA protection factor.
Ten individuals were tested. They were healthy adults of both sexes. An area of skin located on the back of each of the volunteers was subjected to solar exposure after defining the skin type. The exposure was carried out with a UVA spectrum alone (320 nm to 400 nm), supplied by a 150 W xenon lamp fitted with a WG 335 filter 3 mm in thickness and a UG 11 filter 1 mm in thickness. The UV radiation was conducted by 6 liquid, flexible light guides, making it possible to deliver doses of from 6 to 45 joules/cm^2 in a 50% geometric progression.
The application was a single dose, in the open air, of 2±0.02 μl/cm^2, i.e., approximately 0.15 ml of test product per individual, on an area of 75 cm^2, measured with a sterile 1 ml Tuberculin syringe graduated to 1/1000 and having a centered cone.
Exposure was approximately 15 min after application of the product. Macroscopic examination of the exposed areas of the skin was performed approximately 2 h after exposure, to evaluate the immediate and permanent pigmentation reactions. The minimum pigmenting dose on the area protected by the product applied (protected MPD) and that on the area in which no product had been applied (non-protected MPD) was performed simultaneously.
The protection factor PF is then calculated as follows:
PF=protected MPD/non-protected MPD
The test was carried out with 3 compositions, each having the same support, containing arbutin, the UV screening agent (terephthalylidene dicamphor sulphonic acid), and the combination of arbutin and the UV screening agent, respectively.

[1] = Anti-free-radical activity: inhibition of the production of ethylene from methionine under UVA; type: biochemical; conditions: UVA 365 nm, 1 J/cm^2, pH 7.4, average of 3 tests
Protocol: The following were introduced in order into a Petri dish 32 mm in diameter:
1.4 ml of 50 mM phosphate buffer (pH=7.4), 100 μl of 200 mM methionine solution
100 μl of 4 mM ferric chloride solution,
100 μl of 4 mM EDTA (ethylenediaminetetraacetic acid) solution, 100 μl of 400 mM NADH (nicotinamideadeninedinucleotide, reduced form) solution, 100 μl of 2 mM riboflavin solution.
Total volume of the mixture: 2 ml.
The Petri dish was then placed in an aluminum crucible and covered with a quartz cell so as to be exposed to UVA rays (365 nm) at a dose of 1 J/cm^2. The mixture, composed of NADH, riboflavin, ferric chloride and EDTA, when subjected to exposure to the UVA rays, generates reduced oxygen species: O2 .cndot.^-, H2 O2, and mainly the hydroxyl radical .cndot.OH. The latter reacts with methionine to release ethylene. The amount of ethylene was measured by gas chromatography.
The smaller the amount of free radicals formed, the smaller the amount of ethylene released. The results are expressed as a percentage of inhibitory power corresponding to the percentage decrease in the production of ethylene relative to the control (containing 100 μl of phosphate buffer replacing the test product).
The following substances studied were introduced using a micropipette: […]
terephthalylidene dicamphor sulphonic acid […]

| Structure (SMILES) | UVA skin protection (assessment in words) (skin) | UVA sun protection factor (skin; composition with 5% arbutin) | % inhibition (percentage decrease in the production of ethylene relative to the control) ([1]; 0.2% arbutin) [%] | UVA sun protection factor (skin; composition with 1% terephthalylidene dicamphor sulphonic acid) | % inhibition (percentage decrease in the production of ethylene relative to the control) ([1]; 0.2% terephthalylidene dicamphor sulphonic acid) [%] |
| --- | --- | --- | --- | --- | --- |
| OC[C@H]1O[C@@H](Oc2ccc(O)cc2)[C@H](O)[C@@H](O)[C@@H]1O [arbutin, hydroquinone-beta-D-glucopyranoside] | negligible skin protection | 1.6 | 39.0 ± 0.6 | – | – |
| CC1(C)C2CCC1(CS(=O)(=O)O)C(=O)C2=Cc1ccc(C=C2C(=O)C3(CS(=O)(=O)O)CCC2C3(C)C)cc1 [benzene-1,4-bis(3-methylidenecamphor-10-sulphonic acid)] | significant skin protection | – | – | 2.7 | 44.7 ± 1.7 |

Reference: patent US5670487A, “Composition for protecting and/or combating blemishes on and/or ageing of the skin, and uses thereof” (L'Oreal, priority 1995, dated 1997)
